Results as given in patent US9328112B2, “Tetracyclic CDK9 kinase inhibitors” (AbbVie Inc., priority 2014, dated 2016).

What was measured:
CDK9/Cyclin T1 = CDK9/Cyclin T1 (Homo sapiens (Human), UniProt P50750); assay: CDK9 enzyme assay (LANCE ULight TR-FRET kinase assay); format: biochemical; conditions: 1000 μM ATP, 100 nM ULight MBP, kinase reaction 1 hour
Description: CDK9 enzyme activities were measured using LANCE ULight TR-FRET kinase assay reagents (PerkinElmer, Waltham, Mass.). Compounds were diluted in 100% DMSO then diluted with 1:10 in serine/threonine kinase assay buffer containing 20 mM HEPES, 10 mM MgCl2, […], and 0.0075% Triton X-100. Equal volume of the compound dilutions was added to a final reaction mixture containing LANCE detection buffer (PerkinElmer CR97-100), 100 nM ULight MBP (PerkinElmer TRF0109M), 1000 μM ATP, and CDK9/Cyclin T1 (Carna Biosciences 04-110). The kinase reaction was carried out for 1 hour before addition of stopping buffer to a final of 20 mM EDTA and 0.5 nM of LANCE Ultra Europium anti-phospho-MBP antibody (PerkinElmer TRF0201M) in LANCE detection buffer. The reaction was incubated for 1 hour and the signal was read in Envision in TR-FRET mode (excitation at 320 nm and emission at 615/665 nm).

H929 cells = assay: Cell viability assay (Cell TiterGlo); format: cell-based; conditions: Homo sapiens, NCI-H929, 24 hours at 37° C., Cell TiterGlo luminescence
Description: The cell viability assay was performed using H929 cells. Cells were seeded in 96-well plates at 10,000 cells/well and, after overnight incubation, treated with compounds in a dose response of 3-fold dilutions from 10 μM to 0.005 μM ([…], 0.1% final DMSO concentration). After 24 hours at 37° C., cell viability was measured using Cell TiterGlo reagent (Promega) with a luminescence reader.

Sequence of CDK9/Cyclin T1 (P50750 whole entry): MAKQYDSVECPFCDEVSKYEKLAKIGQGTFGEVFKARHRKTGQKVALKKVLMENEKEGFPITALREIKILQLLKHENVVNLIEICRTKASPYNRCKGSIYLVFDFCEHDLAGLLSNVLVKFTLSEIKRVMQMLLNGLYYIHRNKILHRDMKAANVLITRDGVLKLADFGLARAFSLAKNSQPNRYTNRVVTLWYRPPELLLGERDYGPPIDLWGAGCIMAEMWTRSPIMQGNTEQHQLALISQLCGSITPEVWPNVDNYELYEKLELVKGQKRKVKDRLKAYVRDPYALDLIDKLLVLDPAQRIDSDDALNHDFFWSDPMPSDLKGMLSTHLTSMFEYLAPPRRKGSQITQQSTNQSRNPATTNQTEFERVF
Sequence of CDK9/Cyclin T1 (O60563 whole entry partner): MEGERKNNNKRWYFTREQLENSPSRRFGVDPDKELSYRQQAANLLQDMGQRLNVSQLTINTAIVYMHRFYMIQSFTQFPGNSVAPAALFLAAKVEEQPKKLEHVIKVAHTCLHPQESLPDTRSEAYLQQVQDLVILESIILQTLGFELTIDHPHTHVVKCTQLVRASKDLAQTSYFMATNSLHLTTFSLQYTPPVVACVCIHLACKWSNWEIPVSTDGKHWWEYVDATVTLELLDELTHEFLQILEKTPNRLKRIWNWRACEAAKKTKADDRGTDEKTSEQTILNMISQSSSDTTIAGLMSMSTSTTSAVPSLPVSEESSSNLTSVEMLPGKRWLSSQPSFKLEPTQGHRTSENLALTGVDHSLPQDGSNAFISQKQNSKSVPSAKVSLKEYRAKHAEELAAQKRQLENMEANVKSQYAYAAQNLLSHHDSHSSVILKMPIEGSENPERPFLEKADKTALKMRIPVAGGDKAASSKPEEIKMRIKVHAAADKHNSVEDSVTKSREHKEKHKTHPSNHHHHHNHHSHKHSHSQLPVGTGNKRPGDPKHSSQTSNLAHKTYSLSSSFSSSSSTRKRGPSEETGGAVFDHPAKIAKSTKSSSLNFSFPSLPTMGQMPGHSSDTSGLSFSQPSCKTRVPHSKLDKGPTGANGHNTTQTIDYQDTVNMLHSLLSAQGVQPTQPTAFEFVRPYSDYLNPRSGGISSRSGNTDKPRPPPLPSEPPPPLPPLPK

CN1Cc2c(C3=CCC(N[C@H](C(=O)O)c4ccccc4)CC3)[nH]c3nccc(c23)-c2cc(F)ccc21 (stereo partly drawn) [Example 32, (2S)-{[4-(10-fluoro-7-methyl-6,7-dihydro-4H-3,4,7-triazadibenzo[cd,f]azulen-5-yl)cyclohex-3-en-1-yl]amino}(phenyl)acetic acid]
IC50 (CDK9/Cyclin T1): 0.056 µM | IC50 (H929 cells): 0.17 µM

CN1Cc2c(C3=CCC(N[C@@H](CO)C(=O)O)CC3)[nH]c3nccc(c23)-c2cc(F)ccc21 (stereo partly drawn) [Example 38, N-[4-(10-fluoro-7-methyl-6,7-dihydro-4H-3,4,7-triazadibenzo[cd,f]azulen-5-yl)cyclohex-3-en-1-yl]-L-serine]
IC50 (CDK9/Cyclin T1): 0.091 µM | IC50 (H929 cells): 0.27 µM

CN1Cc2c(C3=CCN(C4CC(CC(=O)O)C4)CC3)[nH]c3nccc(c23)-c2cc(F)ccc21 (stereo not shown) [Example 140, {3-[4-(10-fluoro-7-methyl-6,7-dihydro-4H-3,4,7-triazadibenzo[cd,f]azulen-5-yl)-3,6-dihydropyridin-1(2H)-yl]cyclobutyl}acetic acid]
IC50 (CDK9/Cyclin T1): 0.042 µM | IC50 (H929 cells): 0.058 µM

CN1Cc2c(C3=CCN(CC(=O)N4CCC[C@H]4CO)CC3)[nH]c3nccc(c23)-c2cc(F)ccc21 [Example 17, 2-[4-(10-fluoro-7-methyl-6,7-dihydro-4H-3,4,7-triazadibenzo[cd,f]azulen-5-yl)-3,6-dihydropyridin-1(2H)-yl]-1-[(2S)-2-(hydroxymethyl)pyrrolidin-1-yl]ethanone]
IC50 (CDK9/Cyclin T1): 0.07 µM | IC50 (H929 cells): 0.009 µM

CN1Cc2c(C3=CCN(CC(=O)N4CCC[C@H]4CO)CC3(C)C)[nH]c3nccc(c23)-c2cc(F)ccc21 [Example 115, 2-[4-(10-fluoro-7-methyl-6,7-dihydro-4H-3,4,7-triazadibenzo[cd,f]azulen-5-yl)-3,3-dimethyl-3,6-dihydropyridin-1(2H)-yl]-1-[(2S)-2-(hydroxymethyl)pyrrolidin-1-yl]ethanone]
IC50 (CDK9/Cyclin T1): 0.95 µM | IC50 (H929 cells): 2.6 µM

CCOC(=O)NS(=O)(=O)N1CC=C(c2[nH]c3nccc4c3c2CN(C)c2ccc(F)cc2-4)CC1 [Example 3, ethyl{[4-(10-fluoro-7-methyl-6,7-dihydro-4H-3,4,7-triazadibenzo[cd,f]azulen-5-yl)-3,6-dihydropyridin-1(2H)-yl]sulfonyl}carbamate]
IC50 (CDK9/Cyclin T1): 0.047 µM | IC50 (H929 cells): 0.59 µM

CN1Cc2c(C3=CCN4C(=O)OC[C@H]4C3)[nH]c3nccc(c23)-c2cc(F)ccc21 [Example 153, (8aR)-7-(10-fluoro-7-methyl-6,7-dihydro-4H-3,4,7-triazadibenzo[cd,f]azulen-5-yl)-1,5,8,8a-tetrahydro[1,3]oxazolo[3,4-a]pyridin-3-one]
IC50 (CDK9/Cyclin T1): 0.066 µM | IC50 (H929 cells): 0.6 µM

CNS(=O)(=O)CC(=O)N1CC=C(c2[nH]c3nccc4c3c2CN(C)c2ccc(F)cc2-4)CC1 [Example 25, 2-[4-(10-fluoro-7-methyl-6,7-dihydro-4H-3,4,7-triazadibenzo[cd,f]azulen-5-yl)-3,6-dihydropyridin-1(2H)-yl]-N-methyl-2-oxoethanesulfonamide]
IC50 (CDK9/Cyclin T1): 0.022 µM | IC50 (H929 cells): 0.065 µM

CN1Cc2c(C3=CCN([C@H]4CC[C@H](CC(=O)O)CC4)CC3)[nH]c3ncc(F)c(c23)-c2ccccc21 [Example 180, {trans-4-[4-(1-fluoro-7-methyl-6,7-dihydro-4H-3,4,7-triazadibenzo[cd,f]azulen-5-yl)-3,6-dihydropyridin-1(2H)-yl]cyclohexyl}acetic acid]
IC50 (CDK9/Cyclin T1): 0.073 µM | IC50 (H929 cells): 0.011 µM

CN1Cc2c(C3=CCN(C4CCC(=CC(=O)O)CC4)CC3)[nH]c3nccc(c23)-c2cc(F)ccc21 (stereo not shown) [Example 177, {4-[4-(10-fluoro-7-methyl-6,7-dihydro-4H-3,4,7-triazadibenzo[cd,f]azulen-5-yl)-3,6-dihydropyridin-1(2H)-yl]cyclohexylidene}acetic acid]
IC50 (CDK9/Cyclin T1): 0.058 µM | IC50 (H929 cells): 0.12 µM

CN1Cc2c(C3=CCN(C(=O)OC(C)(C)C)CC3)[nH]c3ncc(F)c(c23)-c2cc(F)ccc21 [Example 49, tert-butyl 4-(1,10-difluoro-7-methyl-6,7-dihydro-4H-3,4,7-triazadibenzo[cd,f]azulen-5-yl)-3,6-dihydropyridine-1(2H)-carboxylate]
IC50 (CDK9/Cyclin T1): 0.78 µM | IC50 (H929 cells): 0.78 µM
